Experimental data published in US9434725B2, “5-azaindazole compounds and methods of use” (priority 2012, dated 2016).
Like-named read-outs stand apart in the source and are kept apart here.

What was measured:
[1] = target: PIM1 (Homo sapiens (Human), UniProt P11309); experiment: biochemical; format: biochemical; details: 10 μM ATP, 90 min, room temperature; read-out: PIM1 LC3K (KI)
How it was run: (§1)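 Pim-specific fluorescent peptide phosphorylated in 10 mM HEPES pH 7.2, 10 mM MgCl2, 0.01% Tween 20, 2 mM DTT for 90 min at room temperature, then stopped with EDTA. Product and substrate separated by microfluidic mobility shift; Ki derived from substrate conversion.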

[2] = target: PIM2 (Homo sapiens (Human), UniProt Q9P1W9); experiment: Pim kinase binding activity, Caliper LC3000 microfluidic peptide phosphorylation assay, PIM2; format: biochemical; details: 10 μM ATP, 90 min, room temperature; read-out: PIM2 LC3K (KI)
Chain of PIM2 (Q9P1W9 whole entry): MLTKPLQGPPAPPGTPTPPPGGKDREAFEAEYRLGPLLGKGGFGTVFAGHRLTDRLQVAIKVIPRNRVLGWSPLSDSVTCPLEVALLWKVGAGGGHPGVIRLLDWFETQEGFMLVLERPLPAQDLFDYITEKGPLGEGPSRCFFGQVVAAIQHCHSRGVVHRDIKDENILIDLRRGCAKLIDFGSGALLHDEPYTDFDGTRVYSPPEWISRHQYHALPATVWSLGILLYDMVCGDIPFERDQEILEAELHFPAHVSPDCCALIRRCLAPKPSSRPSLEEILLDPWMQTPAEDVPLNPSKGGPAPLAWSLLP
How it was run: as §1

[3] = target: PIM3 (Homo sapiens (Human), UniProt Q86V86); experiment: Pim kinase binding activity, Caliper LC3000 microfluidic peptide phosphorylation assay, PIM3; format: biochemical; details: 10 μM ATP, 90 min, room temperature; read-out: PIM3 LC3K (KI)
How it was run: as §1

[4] = tested on: BaF3 PIM1 cells; experiment: In vitro cell proliferation potency assay (Cell Titer Glo), BaF3 PIM1 cells; format: cell-based, murine; details: read-out: Prolif BaF3_PIM 1 (IC50)
Experimental: (§2) BaF3 parental line was obtained from the DSMZ repository. BaF3 lines transfected with PIM1 or PIM2 were generated. Mouse IL-3 was purchased from R&D Systems. G418 was purchased from Clontech. Media for BaF3 parental line contained RPMI, 10% FBS, 2 mM L-Glutamine, 2 ng/mL mIL-3. Media for BaF3 PIM1 & 2 lines contained RPMI, 10% FBS, 2 mM L-Glutamine, […]. Media for MM1.S (multiple myeloma cells) line contained RPMI, 10% FBS, 2 mM L-Glutamine.
(§3) BaF3, a murine interleukin-3 dependent pro-B cell line, parental cells, BaF3 PIM1 cells, BaF3 PIM2 cells, and MM1.S (multiple myeloma) cells were seeded at 2 k/well, 5 k/well, 5 k/well, and 10 k/well respectively, in a 384-well plate, at 45 μL/well. Test compound was added at 5 μL/well. BaF3 cells (parental and transfected) were incubated overnight, while MM1.S cells were incubated for 72 hours at 37° C., 5% CO2. CELL TITER GLO® Reagent (Promega) was added at 50 μL/well, the plates were incubated for 30 minutes, and their luminescence read on an HT Analyst. IC50/EC50 values for the test compound were calculated.

[5] = tested on: MM1.S (multiple myeloma) cells; experiment: In vitro cell proliferation potency assay (Cell Titer Glo), MM1.S cells; format: cell-based; details: read-out: Prolif MM1S ATP (EC50)
Experimental: as §2, §3

[6] = BaF3 cells transfected with PIM1, incubated overnight
[7] = Homo sapiens, MM1.S cells, 72 hours
[8] = Mus musculus, BaF3, BaF3 cells transfected with PIM1, incubated overnight
[9] = Homo sapiens, MM1.S, 72 h, MM1.S cells, 72 hours

Chain of PIM1 (P11309 whole entry): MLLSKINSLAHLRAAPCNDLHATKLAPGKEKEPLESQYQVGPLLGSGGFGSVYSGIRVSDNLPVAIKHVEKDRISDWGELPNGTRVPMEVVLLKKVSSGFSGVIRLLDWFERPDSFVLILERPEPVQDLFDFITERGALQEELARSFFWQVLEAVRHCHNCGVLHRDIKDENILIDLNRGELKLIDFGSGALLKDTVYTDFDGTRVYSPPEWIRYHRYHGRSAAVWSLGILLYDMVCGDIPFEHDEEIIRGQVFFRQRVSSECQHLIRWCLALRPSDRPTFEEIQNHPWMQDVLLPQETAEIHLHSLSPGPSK

Compound: Cc1cncc(-c2cc3c(cn2)cnn3-c2cccc(N3CCNC(C)C3)n2)n1 (single isomer, unassigned) [Compound 185, 1-[6-(3-methylpiperazin-1-yl)-2-pyridyl]-6-(6-methylpyrazin-2-yl)pyrazolo[4,3-c]pyridine]
- Ki [1]: 0.06 nM
- Ki [2]: 0.54 nM
- Ki [3]: 0.022 nM
- IC50 [4, 6]: 400 nM
- EC50 [5, 7]: 4800 nM

Compound: Cc1ccc(-n2ncc3cnc(-c4cnn(CC(F)(F)F)c4)cc32)nc1N1CCNC[C@@H](O)C1 (single isomer, unassigned) [Compound 260]
- Ki [1]: 0.047 nM
- Ki [2]: 1.54 nM
- Ki [3]: 0.127 nM
- IC50 [4, 8]: 380 nM
- EC50 ([5]; Homo sapiens, MM1.S, 72 h): 852 nM

Compound: Cc1cncc(-c2cc3c(cn2)cnn3-c2cccc(C3CNCCC3(F)F)n2)n1 (single isomer, unassigned) [Compound 271]
- Ki [1]: 0.189 nM
- Ki [2]: 2.45 nM
- IC50 [4, 6]: 1400 nM
- EC50 ([5]; MM1.S cells, 72 hours): 4900 nM

Compound: Cc1cncc(-c2cc3c(cn2)cnn3-c2cccc(C3CNCCC3(F)F)n2)n1 (single isomer, unassigned) [Compound 272]
- Ki [1]: 0.067 nM
- Ki [2]: 0.234 nM
- IC50 [4, 6]: 194 nM
- EC50 ([5]; MM1.S cells, 72 hours): 1200 nM

Compound: Cc1cncc(-c2cc3c(cn2)cnn3-c2cccc(N3CCNCC3)n2)n1 [Compound 123, 6-(6-methylpyrazin-2-yl)-1-(6-(piperazin-1-yl)pyridin-2-yl)-1H-pyrazolo[4,3-c]pyridine]
- Ki [1]: 0.095 nM
- Ki [2]: 0.893 nM
- Ki [3]: 0.0498 nM
- IC50 [4, 8]: 284 nM
- EC50 [5, 9]: 3900 nM

Compound: c1cc(N2CCNCC2)nc(-n2ncc3cnc(-c4cnccn4)cc32)c1 [Compound 144, 1-(6-piperazin-1-yl-2-pyridyl)-6-pyrazin-2-yl-pyrazolo[4,3-c]pyridine]
- Ki [2]: 1.16 nM
- Ki [3]: 0.05 nM
- EC50 [5, 9]: 2600 nM

Compound: CC(C)n1cc(-c2cc3c(cn2)cnn3-c2cccc(N3CCCNCC3)n2)cn1 [Compound 146, 1-(6-(1,4-Diazepan-1-yl)pyridin-2-yl)-6-(1-isopropyl-1H-pyrazol-4-yl)-1H-pyrazolo[4,3-c]pyridine]
- Ki [1]: 0.532 nM
- Ki [2]: 7.81 nM
- Ki [3]: 0.656 nM
- IC50 [4, 8]: 797 nM
- EC50 [5, 7]: 4300 nM

Compound: c1cc(N2CCCNCC2)nc(-n2ncc3cnc(-c4cnn(C5CCC5)c4)cc32)c1 [Compound 147, 1-(6-(1,4-Diazepan-1-yl)pyridin-2-yl)-6-(1-cyclobutyl-1H-pyrazol-4-yl)-1H-pyrazolo[4,3-c]pyridine]
- Ki [1]: 0.213 nM
- Ki [2]: 3.92 nM
- Ki [3]: 0.259 nM
- IC50 [4, 8]: 869 nM
- EC50 [5, 7]: 2700 nM

Compound: CCc1cncc(-c2cc3c(cn2)cnn3-c2cccc(N3CCCNCC3)n2)n1 [Compound 150, 1-[6-(1 4-diazepan-1-yl)-2-pyridyl]-6-(6-ethylpyrazin-2-yl)pyrazolo[4 3-c]pyridine]
- Ki [2]: 0.333 nM
- Ki [3]: 0.019 nM
- EC50 [5, 7]: 1900 nM

Compound: CCn1cncc(-c2cc3c(cn2)cnn3-c2cccc(N3CCNCC3)n2)c1=O [Compound 151, 3-ethyl-5-[1-(6-piperazin-1-yl-2-pyridyl)pyrazolo[4,3-c]pyridin-6-yl]pyrimidin-4-one]
- Ki [2]: 3.32 nM
- Ki [3]: 0.081 nM
- EC50 [5, 9]: 8600 nM

Compound: FCCn1cc(-c2cc3c(cn2)cnn3-c2cccc(N3CCCNCC3)n2)cn1 [Compound 153, 1-(6-(1,4-Diazepan-1-yl)pyridin-2-yl)-6-(1-(2-fluoroethyl)-1H-pyrazol-4-yl)-1H-pyrazolo[4,3-c]pyridine]
- Ki [2]: 1.37 nM
- Ki [3]: 0.085 nM
- EC50 [5, 9]: 2500 nM

Compound: FC(F)(F)Cn1cc(-c2cc3c(cn2)cnn3-c2cccc(N3CCCNCC3)n2)cn1 [Compound 154, 1-(6-(1,4-Diazepan-1-yl)pyridin-2-yl)-6-(1-(2,2,2-trifluoroethyl)-1H-pyrazol-4-yl)-1H-pyrazolo[4,3-c]pyridine]
- Ki [2]: 1.01 nM
- Ki [3]: 0.175 nM
- EC50 [5, 9]: 2300 nM

Compound: N#CCn1cc(-c2cc3c(cn2)cnn3-c2cccc(N3CCCNCC3)n2)cn1 [Compound 155, 2-(4-(1-(6-(1,4-Diazepan-1-yl)pyridin-2-yl)-1H-pyrazolo[4,3-c]pyridin-6-yl)-1H-pyrazol-1-yl)acetonitrile]
- Ki [2]: 1.49 nM
- Ki [3]: 0.109 nM
- EC50 [5, 9]: 3500 nM

Compound: Cc1cncc(-c2cc3c(cn2)cnn3-c2cccc(N3CC[C@@H](N)C3)n2)n1 [Compound 168, (3R)-1-[6-[6-(6-methylpyrazin-2-yl)pyrazolo[4,3-c]pyridin-1-yl]-2-pyridyl]pyrrolidin-3-amine]
- Ki [2]: 4.74 nM
- Ki [3]: 0.806 nM
- EC50 [5, 9]: 5000 nM

Compound: Cn1cc(-c2cc3c(cn2)cnn3-c2cccc(N3CCNC[C@H](O)C3)n2)cn1 [Compound 231, (S)-1-(6-(6-(1-Methyl-1H-pyrazol-4-yl)-1H-pyrazolo[4,3-c]pyridin-1-yl)pyridin-2-yl)-1,4-diazepan-6-ol]
- Ki [1]: 0.078 nM
- Ki [2]: 1.39 nM
- Ki [3]: 0.032 nM
- EC50 [5, 9]: 2200 nM

Compound: Nc1cncc(-c2cc3c(cn2)cnn3-c2cccc(N3CCCNCC3)n2)n1 [Compound 247, 6-(1-(6-(1,4-diazepan-1-yl)pyridin-2-yl)-1H-pyrazolo[4,3-c]pyridin-6-yl)pyrazin-2-amine]
- Ki [1]: 0.023 nM
- Ki [2]: 0.664 nM
- Ki [3]: 0.026 nM
- EC50 [5, 7]: 2500 nM

Compound: OCCNc1cncc(-c2cc3c(cn2)cnn3-c2cccc(N3CCNCC3)n2)n1 [Compound 282, 2-[[6-[1-(6-piperazin-1-yl-2-pyridyl)pyrazolo[4,3-c]pyridin-6-yl]pyrazin-2-yl]amino]ethanol]
- Ki [2]: 0.357 nM
- Ki [3]: 0.021 nM
- EC50 [5, 9]: 9700 nM

Compound: O[C@H]1CCC[C@@H]1Nc1cncc(-c2cc3c(cn2)cnn3-c2cccc(N3CCNCC3)n2)n1 [Compound 283]
- Ki [2]: 8.05 nM
- Ki [3]: 0.182 nM
- EC50 [5, 9]: 8900 nM

Compound: CCNc1cncc(-c2cc3c(cn2)cnn3-c2cccc(N3CCNCC3)n2)n1 [Compound 285, N-ethyl-6-(1-(6-(piperazin-1-yl)pyridin-2-yl)-1H-pyrazolo[4,3-c]pyridin-6-yl)pyrazin-2-amine]
- Ki [1]: 0.044 nM
- Ki [2]: 2.28 nM
- IC50 [4, 8]: 112 nM
- EC50 [5, 9]: 6400 nM

Compound: Cc1cncc(-c2cc3c(cn2)cnn3-c2cccc(N3CCCC4(CN(C=O)C4)C3)n2)n1 [Compound 291, 6-(6-(6-(6-methylpyrazin-2-yl)-1H-pyrazolo[4,3-c]pyridin-1-yl)pyridin-2-yl)-2,6-diazaspiro[3.5]nonane-2-carbaldehyde]
- Ki [1]: 4.41 nM
- Ki [2]: 40.9 nM
- Ki [3]: 3.42 nM
- EC50 ([5]; Homo sapiens, MM1.S, 72 h): > 25000 nM

Compound: Cc1cncc(-c2cc3c(cn2)cnn3-c2ccc3c(n2)CC(CN)CO3)n1 (stereo not shown) [Compound 292, (6-(6-(6-methylpyrazin-2-yl)-1H-pyrazolo[4,3-c]pyridin-1-yl)-3,4-dihydro-2H-pyrano[3,2-b]pyridin-3-yl)methanamine]
- Ki [1]: 1.6 nM
- Ki [2]: 19.4 nM
- Ki [3]: 0.796 nM
- EC50 [5, 7]: 11700 nM

Compound: Cc1cncc(-c2cc3c(cn2)cnn3-c2cccc(C3(F)CCCNC3)n2)n1 (stereo not shown) [Compound 294, 1-(6-(3-fluoropiperidin-3-yl)pyridin-2-yl)-6-(6-methylpyrazin-2-yl)-1H-pyrazolo[4,3-c]pyridine]
- Ki [1]: 0.514 nM
- Ki [2]: 2.37 nM
- IC50 [4, 8]: 772 nM
- EC50 [5, 9]: 9300 nM

Compound: OCC#Cc1cncc(-c2cc3c(cn2)cnn3-c2cccc(N3CCNCC3)n2)n1 [Compound 300, 3-(6-(1-(6-(piperazin-1-yl)pyridin-2-yl)-1H-pyrazolo[4,3-c]pyridin-6-yl)pyrazin-2-yl)prop-2-yn-1-ol]
- Ki [2]: 0.228 nM
- Ki [3]: 0.032 nM
- EC50 [5, 9]: 2400 nM

Compound: Cc1cncc(-c2cc3c(cn2)cnn3-c2cccc(OC3CCCC(N)C3)n2)n1 (stereo not shown) [Compound 311, 3-(6-(6-(6-methylpyrazin-2-yl)-1H-pyrazolo[4,3-c]pyridin-1-yl)pyridin-2-yloxy)cyclohexanamine]
- Ki [1]: 0.069 nM
- Ki [3]: 0.036 nM
- IC50 [4, 8]: 1000 nM
- EC50 [5, 9]: 5500 nM

Compound: Cc1cncc(-c2cc3c(cnn3-c3cccc(N4CCNCC4)n3)nn2)n1 [Compound 313, 6-(6-methylpyrazin-2-yl)-1-(6-(piperazin-1-yl)pyridin-2-yl)-1H-pyrazolo[4,3-c]pyridazine]
- Ki [2]: 0.71 nM
- Ki [3]: 0.05 nM
- EC50 [5, 9]: 7100 nM

Compound: CC#Cc1cncc(-c2cc3c(cn2)cnn3-c2cccc(N3CCNCC3)n2)n1 [Compound 317, 1-(6-(piperazin-1-yl)pyridin-2-yl)-6-(6-(prop-1-ynyl)pyrazin-2-yl)-1H-pyrazolo[4,3-c]pyridine]
- Ki [2]: 1.71 nM
- Ki [3]: 0.026 nM
- EC50 [5, 9]: 2700 nM
